These results are taken from PubChem BioAssay AID449762 (Southern Research Specialized Biocontainment Screening …, 2010).

In the assay the test system is M. tuberculosis H37Rv growth inhibition, 7H9 media. Description: M. tuberculosis growth inhibition, HTS (AID 449762).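 For all read-outs here: bacterial growth assessed after seven days of incubation.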 To be noted: for IC90: measured here: IC90 growth inhibition.

Molecules are shown by their SMILES. Inconclusive results are not listed. Bounds are passed on as bounds.

Take `Cc1nn(-c2ccccc2)c(C)c1/C=N/NC(=O)c1cc(-c2cccc3ccccc23)n[nH]1`: the IC50 is 29 µM and the IC90 was greater than 100 µM.

Consider `O=C(CSc1nn(-c2ccc(F)cc2)c(=S)s1)NCC1CCCO1` (configuration not stated), for which the IC50 is 6.13 µM and the IC90 is greater than 100 µM.

Turning to `C=CCNC(=O)c1onc(CCl)c1C(=O)OC`, the concentration for half-maximal inhibition (IC50) was 1.66 µM and the IC90 turned out to be 5.93 µM.

On to `Cc1cccc2c1-c1sc(C(=O)Nc3ccccc3N3CCN(C)CC3)cc1CO2`, for which the IC50 is 17.9 µM and the IC90 came out at 25.1 µM.

Turning to `O=[N+]([O-])c1ccc(O)c(-c2cc(C(F)(F)F)nc(-c3ccccc3)n2)c1`, the IC50 is 22.2 µM and the IC90 came to 23.3 µM.

Take `CCCCCc1ccc(-c2cn(Cc3cccc(OC)c3)nn2)cc1`: the IC50 was 20.7 µM and the IC90 was determined as 50 µM.

On to `CSc1ccc(NC(=O)Nc2cccn(Cc3ccccc3)c2=O)cc1`, for which the IC50 was 18.5 µM and the IC90 is greater than 100 µM.

With `CN(C(=S)NC(=O)c1ccc(Cl)cc1)C1CCCCC1`, the IC50 is 3.1 µM and the IC90 amounted to 13.7 µM.

With `O=C(OCC(=O)N1CCCc2ccccc21)c1ccc(S(=O)(=O)C(F)F)cc1`, the IC50 is 24.1 µM and the IC90 is 38 µM.

For the compound `COc1ccc(Cc2nnc(SCC(=O)N(c3ccccc3)C(C)C)n(N)c2=O)cc1`, the IC50 is 40.9 µM and the IC90 was determined as 74.4 µM.

On to `CCOC(=O)c1ccc(NC(=O)CCc2nc(-c3ccc(Cl)cc3)no2)cc1`, for which the IC50 was 27.4 µM and the IC90 was greater than 100 µM.

For the compound `COc1ccc(N/N=C(/N=Nc2nc(C)cc(=O)[nH]2)c2ccccc2)cc1`, the IC50 is 5.91 µM and the IC90 is 6.69 µM.

As for `Cc1nn(-c2nc3ccccc3[nH]2)c(N)c1-c1ccc(Cl)cc1`, the IC50 is 0.21 µM and the IC90 is 2.6 µM.

As for `CCc1nnc(NS(=O)(=O)c2ccc(N/C=C\C(=O)c3cccc(OC)c3)cc2)s1`, the IC50 is 16.2 µM and the IC90 came out at 35.5 µM.

As to `COc1ccc(CCNc2nc(N3CCCCC3)nc(N3CCCCC3)n2)cc1OC`, the IC50 is 17.3 µM and the IC90 stood at 22.5 µM.

On to `COc1ccc(/C=N/Nc2nncn2N)cc1Br`, for which the IC50 was 10.8 µM and the IC90 came to 16.3 µM.

Regarding `Cc1ccc(OC(=O)CCN2C(=O)c3ccccc3C2=O)cc1C`, the IC50 was 28.6 µM and the IC90 is greater than 100 µM.

As for `COc1ccc(N2CCN(C(=O)c3cc4c(C)nc5ccccc5c4o3)CC2)cc1`, the IC50 is 18.5 µM and the IC90 came to 32.5 µM.

As to `Cc1cc(C(=O)CCl)c(C)n1-c1cccc([N+](=O)[O-])c1`, the IC50 is less than 0.2 µM and the IC90 was 1.54 µM.

Turning to `C=CCS/C(N)=N\N=C\c1c(O)ccc2ccccc12`, the IC50 was 12.2 µM and the IC90 was 48.6 µM.

Take `Nn1c(SCc2ccccc2)nc2ccccc21`: the IC50 was 28 µM and the IC90 is greater than 100 µM.

Consider `O=C(CSC1=Nc2ccccc2C2=NC(c3ccccc3)C(=O)N12)NC1CCCCC1` (configuration not stated), for which the 50% inhibitory concentration (IC50) is 0.66 µM and the IC90 amounted to 1.29 µM.

For `Nc1ccc(Oc2ccc(F)cc2)nc1`, the IC50 is 60.6 µM and the IC90 was determined as 90.1 µM.

For the compound `ClCc1nc2ccccc2c2ccccc12`, the IC50 was 6.3 µM and the IC90 stood at 17.2 µM.

With `CCCCCn1c(=O)c2ccccc2n2c(CCl)nnc12`, the IC50 was 0.48 µM and the IC90 was 2.21 µM.

As for `O=C(Oc1ccccc1)c1ccccc1OS(=O)(=O)c1ccccc1`, the IC50 is 1.1 µM and the IC90 worked out at 14.3 µM.

As to `CN1CCN(c2ccc(S(=O)(=O)N3CCCCC3)cc2NC(=O)/C=C/c2ccc(Cl)c([N+](=O)[O-])c2)CC1`, the IC50 was 30.4 µM and the IC90 worked out at 38.7 µM.

As to `CCOC(=O)CSc1nc(N)c(C(=O)Nc2ccc(N(C)C)cc2)s1`, the IC50 is 1.05 µM and the IC90 was 5.82 µM.

Consider `COc1ccc(NCc2nnc(SCC(=O)c3ccc(OC)cc3)o2)cc1`, for which the IC50 was 7.11 µM and the IC90 is 13.4 µM.

With `Cc1cccc(/C=C/C(=O)c2ccc([N+](=O)[O-])o2)c1`, the IC50 is less than 0.2 µM and the IC90 is less than 0.2 µM.

For the compound `COc1cc2c(cc1OC)C1(Nc3c-2c(-c2ccccc2)nn3-c2ccccc2)C(=O)Nc2ccccc21` (configuration not stated), the IC50 was 90.5 µM and the IC90 was greater than 100 µM.

In the case of `O=C(C[n+]1cc(-c2ccc(Cl)cc2)n2c1CCC2)Nc1nc(-c2ccccc2)cs1`, the IC50 is 17 µM and the IC90 turned out to be 25.1 µM.

For the compound `CCCCCC1CC(CC(=O)NC(=S)Nc2ccc([N+](=O)[O-])cc2)C(=O)O1` (configuration not stated), the half-inhibitory concentration (IC50) was 92.9 µM and the IC90 is greater than 100 µM.

For `COc1ccc2nc(NC(=O)C3CCCN(S(=O)(=O)c4cccs4)C3)sc2c1` (configuration not stated), the IC50 was 18 µM and the IC90 was determined as 27.6 µM.

`CN(C)CCOc1nc(-c2ccccc2)nc2c1oc1ccccc12`: the IC50 is 11.8 µM and the IC90 was 16.3 µM.

Turning to `Cc1ccc(NC(=S)N(CCCN2CCCC2)Cc2cccn2Cc2ccc(Cl)cc2)cc1C`, the IC50 is 86 µM and the IC90 was greater than 100 µM.

For `CCCn1c(Nc2nc3ccccc3n2C)nc2ccccc21`, the IC50 was 83 µM and the IC90 came to 88.7 µM.

For `Cc1ccccc1CSc1nsc(N)n1`, the IC50 is 6.7 µM and the IC90 is 19.6 µM.

For `CCCOC(=O)CSc1nc(N2CCOCC2)c2c(c1C#N)CC(C)(C)OC2`, the IC50 was 21.8 µM and the IC90 amounted to 37.4 µM.

Turning to `O=C(Cc1ccc([N+](=O)[O-])cc1)Nc1cc(C(F)(F)F)cc(C(F)(F)F)c1`, the IC50 was 2.74 µM and the IC90 is 3.12 µM.

In the case of `C/C(=N\NC(=S)Nc1cccc(C)c1)c1cccc(N)c1`, the IC50 is 25.8 µM and the IC90 was 30.4 µM.

Consider `CCc1cc(C(=O)Nc2ccc(C)cc2Br)cs1`, for which the IC50 is 30 µM and the IC90 was greater than 100 µM.

In the case of `COc1ccc(-c2cc(-c3ccccc3)c(C#N)c(S(C)=O)n2)cc1` (configuration not stated), the IC50 is 15.1 µM and the IC90 is 29 µM.

Consider `Cc1ccc(S(=O)(=O)CNC(=S)c2ccc3ccccc3c2)cc1`, for which the IC90 was greater than 100 µM.

For `CCn1nc(NC(=O)c2ccncc2)c2cc3cc(C)ccc3nc21`, the IC50 is 4.47 µM and the IC90 is 47.3 µM.

`Cc1ccc(NC(=O)C2C3/C=C\CCCCC32)cc1C` (configuration not stated): the IC50 is 2.87 µM and the IC90 was found to be 3.29 µM.

Regarding `COC(=O)c1c(NC(=O)CCl)sc(C(=O)N2CCOCC2)c1C`, the half-maximal inhibitory concentration (IC50) is 2.19 µM and the IC90 is 5.65 µM.

For `Cc1ccc2c(c1)c1c3n2CCN=C3CCC1`, the IC50 was 10.3 µM and the IC90 is 19 µM.

As to `COc1cccc(NC(=O)CNC(=O)Cn2cnc3sc4c(c3c2=O)CCCC4)c1`, the IC50 was 36.6 µM and the IC90 was greater than 100 µM.

On to `O=C(NC1CCCCCC1)c1ccccc1-c1ccccc1`, for which the IC50 is 18.4 µM and the IC90 was greater than 100 µM.

On to `Cn1/c(=N/NC(=O)c2cccc(OC(F)F)c2)sc2ccccc21`, for which the IC50 is 2 µM and the IC90 was 22.7 µM.

As to `S=C(NN=C1CCN(Cc2ccccc2)CC1)NC1CCCCC1`, the concentration for half-maximal inhibition (IC50) was 16.7 µM and the IC90 stood at 25.3 µM.

With `O=C(NNc1nc2ccccc2s1)c1ccccc1F`, the IC50 is 22.2 µM and the IC90 is greater than 100 µM.

Take `Cc1ccc(/C=N/NC(=S)NC(C)C)o1`: the IC50 is 42.4 µM and the IC90 came to 47.9 µM.

On to `Cc1nc2ccc(NC(=O)c3ccc([N+](=O)[O-])cc3[N+](=O)[O-])cc2s1`, for which the IC50 is 1.62 µM and the IC90 amounted to 16.7 µM.

Consider `O=C(CN1CCCCC1)Nc1nnc(-c2ccc([N+](=O)[O-])cc2)s1`, for which the IC50 is 16.2 µM and the IC90 stood at 62.4 µM.

Turning to `C/C(CC(=O)Nc1ccc2c(c1)OCCO2)=N\NC(=O)c1ccccc1F`, the IC50 is 6.94 µM and the IC90 is greater than 100 µM.

For `C=CCC1(CC=C)CCCN1C(=O)c1cc(COc2ccc(-n3cncn3)cc2)on1`, the IC50 was 41.8 µM and the IC90 is greater than 100 µM.

With `Clc1cc(Cl)cc(Nc2ncn[nH]2)c1`, the IC50 was 24.1 µM and the IC90 was greater than 100 µM.

`CCNC(=S)NN=C1c2ccccc2-c2ccccc21`: the IC50 is 11.2 µM and the IC90 is 12.7 µM.

With `CCOc1ccc(NC(=S)Nc2ccc(C)c([N+](=O)[O-])c2)cc1`, the IC50 is 45 µM and the IC90 is greater than 100 µM.

For `Cc1ccc2nc(=O)c(NNc3ccccc3)cnc2c1`, the IC50 is 16.5 µM and the IC90 was greater than 100 µM.

In the case of `Cc1ccc(Cl)cc1N1CCN(C(=O)C2CCC(=O)N(C3CCCCCC3)C2)CC1` (configuration not stated), the IC50 is 19.3 µM and the IC90 was determined as 28.6 µM.

`c1nc2n(n1)C1=C(CCCC1)C1(CCCCC1)N2`: the IC50 is 10.2 µM and the IC90 worked out at 30 µM.

For `Brc1ccc2c(c1)C(OC1CN3CCC1CC3)c1ccccc1CS2` (configuration not stated), the IC50 was 25.2 µM and the concentration for an effect of 90% (IC90) was 28.4 µM.

Turning to `O=[N+]([O-])c1ccc(-n2cnc3ccccc32)c([N+](=O)[O-])c1`, the 50% inhibitory concentration (IC50) is 1.61 µM and the IC90 was 5.96 µM.

`CCOc1ccc2nc(/N=C/c3nc(-c4ccccc4)oc3O)sc2c1` gave an IC90 greater than 100 µM.

For `N=C1C(c2nc3ccccc3[nH]2)=C(O)CN1NC(=O)c1c[nH]c2ccccc12`, the IC50 is 13.5 µM and the IC90 was found to be 30.7 µM.

Consider `Cc1nn(-c2ccccn2)c2c1-c1nc(N3CCOCC3)ncc1CC2`, for which the IC50 is 12.9 µM and the IC90 was greater than 100 µM.

On to `CN1CCN(CC/C=C2/c3ccccc3Sc3ccc(S(=O)(=O)N(C)C)cc32)CC1`, for which the IC90 is greater than 100 µM.

In the case of `CCCCCCCCn1cnc2c(N)c(C)c(C)cc21`, the IC50 is 37.4 µM and the IC90 worked out at 60 µM.

As to `C/C(=N\NC(N)=S)C1C2C3CC4C5CC(C42)C1C53` (configuration not stated), the IC50 is 28.1 µM and the IC90 was 58.2 µM.

As for `Cn1c(NC(=S)Nc2ccccc2)nc2ccccc21`, the IC50 was 3.71 µM and the IC90 amounted to 6.27 µM.

Consider `Cc1ccc(C)c(NC(CC(=O)c2ccccc2)C(=O)OCC(=O)c2cccs2)c1` (configuration not stated), for which the IC50 was 5.16 µM and the IC90 was found to be 7.68 µM.

Regarding `CN1C(=O)/C(=C/c2cccc(Cl)c2)Sc2ccc(C(=O)N3CCCC3)cc21`, the IC50 was 17.1 µM and the IC90 is 31 µM.
